Measurements as given in US11697648B2, “Fused pyrimidine pyridinone compounds as JAK inhibitors” (THERAVANCE BIOPHARMA R&D IP, LLC, priority 2019, dated 2023).

Molecular target: JAK1 (Homo sapiens (Human), UniProt P23458)
Experiment: Biochemical JAK1 kinase assay (LanthaScreen)
Details: not given
Summary of the method: (§1)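 GST-JAK + GFP-STAT1 peptide, HEPES pH 7.5/MgCl2/EGTA/Brij-35 buffer; cpd preincubation 1 h RT; ATP start, 1 h RT; stop with 10 mM EDTA + 2 nM Tb-anti-pSTAT1; TR-FRET 520/495. 4-parameter IC50 → pKi (Cheng-Prusoff).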

JAK1, sequence (P23458 whole entry): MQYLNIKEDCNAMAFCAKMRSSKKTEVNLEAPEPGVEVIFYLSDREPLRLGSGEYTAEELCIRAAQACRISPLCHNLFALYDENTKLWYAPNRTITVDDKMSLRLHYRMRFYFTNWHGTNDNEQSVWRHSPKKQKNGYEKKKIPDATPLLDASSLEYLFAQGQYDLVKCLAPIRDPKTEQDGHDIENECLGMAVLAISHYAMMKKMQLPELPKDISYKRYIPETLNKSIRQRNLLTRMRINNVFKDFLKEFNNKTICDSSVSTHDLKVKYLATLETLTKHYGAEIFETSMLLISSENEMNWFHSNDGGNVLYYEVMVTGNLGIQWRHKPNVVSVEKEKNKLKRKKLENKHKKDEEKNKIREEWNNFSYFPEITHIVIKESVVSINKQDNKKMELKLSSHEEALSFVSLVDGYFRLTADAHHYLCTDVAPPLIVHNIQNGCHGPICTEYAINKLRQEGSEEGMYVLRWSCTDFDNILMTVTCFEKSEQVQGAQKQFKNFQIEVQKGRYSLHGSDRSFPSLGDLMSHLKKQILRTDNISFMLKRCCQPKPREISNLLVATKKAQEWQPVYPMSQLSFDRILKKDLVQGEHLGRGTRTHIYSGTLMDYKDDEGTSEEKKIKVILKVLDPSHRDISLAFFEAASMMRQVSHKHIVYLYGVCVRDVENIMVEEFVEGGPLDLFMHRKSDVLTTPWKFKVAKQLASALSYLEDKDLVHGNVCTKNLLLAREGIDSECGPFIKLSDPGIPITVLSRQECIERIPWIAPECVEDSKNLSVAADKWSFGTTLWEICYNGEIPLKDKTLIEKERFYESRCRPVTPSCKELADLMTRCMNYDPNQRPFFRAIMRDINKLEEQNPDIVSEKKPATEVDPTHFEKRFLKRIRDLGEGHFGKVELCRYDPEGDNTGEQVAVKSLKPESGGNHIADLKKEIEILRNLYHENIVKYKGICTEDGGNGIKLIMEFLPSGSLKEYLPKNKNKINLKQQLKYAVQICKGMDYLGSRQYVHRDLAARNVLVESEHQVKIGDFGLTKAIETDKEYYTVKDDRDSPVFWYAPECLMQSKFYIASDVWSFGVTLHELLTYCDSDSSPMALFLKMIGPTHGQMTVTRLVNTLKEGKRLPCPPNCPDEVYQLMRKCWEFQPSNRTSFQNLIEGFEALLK

Row | Structure (SMILES) | JAK 1 (pKi)
1 | C=CC(=O)N1CC(CCn2c(=O)ccc3cnc(Nc4cccc(N5CCN(C(=O)OC)CC5)c4)nc32)C1 [Example 123] | E (E represents a pKi value of 7 or below (Ki of 100 nM or above))
2 | C=CC(=O)N1CC(CCn2c(=O)ccc3cnc(Nc4cccc(N5CCN(C(=O)N(C)C)CC5)c4)nc32)C1 [Example 124] | E (E represents a pKi value of 7 or below (Ki of 100 nM or above))
3 | C=CC(=O)N1CC(CCn2c(=O)ccc3cnc(Nc4cccc(CN5CCN(S(=O)(=O)CC#N)CC5)c4)nc32)C1 [Example 125] | E (E represents a pKi value of 7 or below (Ki of 100 nM or above))
4 | C=CC(=O)N1CC(CCn2c(=O)ccc3cnc(Nc4cccc(N5CCN(S(C)(=O)=O)CC5)c4)nc32)C1 [Example 127] | E (E represents a pKi value of 7 or below (Ki of 100 nM or above))
5 | C=CC(=O)N1CCN(CCn2c(=O)ccc3cnc(Nc4ccc(N5CCN(S(C)(=O)=O)CC5)cc4)nc32)CC1 [Example 130] | E (E represents a pKi value of 7 or below (Ki of 100 nM or above))
6 | C=CC(=O)N1CCN(CCn2c(=O)ccc3cnc(Nc4cnn(C)c4)nc32)[C@@H](CO)C1 [Example 131] | E (E represents a pKi value of 7 or below (Ki of 100 nM or above))
7 | C=CC(=O)N1CC(CCn2c(=O)ccc3cnc(Nc4ccc(N5CCN(C)CC5)c(OC)c4)nc32)C1 [Example 135] | E (E represents a pKi value of 7 or below (Ki of 100 nM or above))

Molecular target: JAK2 (Homo sapiens (Human), UniProt O60674)
Experiment: Biochemical JAK2 kinase assay (LanthaScreen)
Details: not given
Summary of the method: as §1

JAK2, sequence (O60674 whole entry): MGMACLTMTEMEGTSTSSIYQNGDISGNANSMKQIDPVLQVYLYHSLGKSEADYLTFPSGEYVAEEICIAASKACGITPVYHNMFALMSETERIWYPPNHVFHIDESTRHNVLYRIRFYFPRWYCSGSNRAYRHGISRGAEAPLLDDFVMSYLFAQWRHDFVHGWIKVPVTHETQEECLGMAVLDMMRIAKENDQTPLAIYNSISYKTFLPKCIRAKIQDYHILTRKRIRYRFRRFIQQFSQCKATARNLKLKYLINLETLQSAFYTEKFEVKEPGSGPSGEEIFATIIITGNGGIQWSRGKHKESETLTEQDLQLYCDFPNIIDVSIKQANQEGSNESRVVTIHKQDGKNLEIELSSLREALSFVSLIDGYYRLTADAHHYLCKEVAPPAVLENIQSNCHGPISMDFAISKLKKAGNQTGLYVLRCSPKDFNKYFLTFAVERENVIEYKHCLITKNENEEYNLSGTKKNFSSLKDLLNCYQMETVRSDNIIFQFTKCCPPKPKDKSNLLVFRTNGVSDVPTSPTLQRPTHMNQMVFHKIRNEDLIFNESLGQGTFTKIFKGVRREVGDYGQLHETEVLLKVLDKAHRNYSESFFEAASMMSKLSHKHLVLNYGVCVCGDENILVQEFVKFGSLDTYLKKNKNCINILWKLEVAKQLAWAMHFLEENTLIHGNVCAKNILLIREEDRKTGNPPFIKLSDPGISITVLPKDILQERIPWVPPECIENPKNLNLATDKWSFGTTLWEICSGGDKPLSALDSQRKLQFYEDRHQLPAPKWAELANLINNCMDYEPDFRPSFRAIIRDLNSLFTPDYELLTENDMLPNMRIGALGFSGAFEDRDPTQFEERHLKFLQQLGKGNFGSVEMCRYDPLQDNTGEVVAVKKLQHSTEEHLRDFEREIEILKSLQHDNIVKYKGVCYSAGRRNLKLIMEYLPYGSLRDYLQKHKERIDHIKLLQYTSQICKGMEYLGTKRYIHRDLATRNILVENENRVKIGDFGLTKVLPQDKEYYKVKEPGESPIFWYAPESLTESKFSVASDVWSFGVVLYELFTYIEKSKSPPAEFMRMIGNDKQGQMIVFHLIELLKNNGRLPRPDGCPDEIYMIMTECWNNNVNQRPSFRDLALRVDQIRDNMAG

Row | Structure (SMILES) | JAK 2 (pKi)
8 | C=CC(=O)N1CC(CCn2c(=O)ccc3cnc(Nc4cccc(N5CCN(C(=O)OC)CC5)c4)nc32)C1 [Example 123] | E (E represents a pKi value of 7 or below (Ki of 100 nM or above))
9 | C=CC(=O)N1CC(CCn2c(=O)ccc3cnc(Nc4cccc(N5CCN(C(=O)N(C)C)CC5)c4)nc32)C1 [Example 124] | E (E represents a pKi value of 7 or below (Ki of 100 nM or above))
10 | C=CC(=O)N1CC(CCn2c(=O)ccc3cnc(Nc4cccc(CN5CCN(S(=O)(=O)CC#N)CC5)c4)nc32)C1 [Example 125] | E (E represents a pKi value of 7 or below (Ki of 100 nM or above))
11 | C=CC(=O)N1CC(CCn2c(=O)ccc3cnc(Nc4cccc(N5CCN(S(C)(=O)=O)CC5)c4)nc32)C1 [Example 127] | E (E represents a pKi value of 7 or below (Ki of 100 nM or above))
12 | C=CC(=O)N1CCN(CCn2c(=O)ccc3cnc(Nc4ccc(N5CCN(S(C)(=O)=O)CC5)cc4)nc32)CC1 [Example 130] | E (E represents a pKi value of 7 or below (Ki of 100 nM or above))
13 | C=CC(=O)N1CCN(CCn2c(=O)ccc3cnc(Nc4cnn(C)c4)nc32)[C@@H](CO)C1 [Example 131] | E (E represents a pKi value of 7 or below (Ki of 100 nM or above))
14 | C=CC(=O)N1CC(CCn2c(=O)ccc3cnc(Nc4ccc(N5CCN(C)CC5)c(OC)c4)nc32)C1 [Example 135] | E (E represents a pKi value of 7 or below (Ki of 100 nM or above))

Molecular target: JAK3 (Homo sapiens (Human), UniProt P52333)
Experiment: Biochemical JAK3 kinase assay (LanthaScreen)
Details: not given
Summary of the method: as §1

JAK3, sequence (P52333 whole entry): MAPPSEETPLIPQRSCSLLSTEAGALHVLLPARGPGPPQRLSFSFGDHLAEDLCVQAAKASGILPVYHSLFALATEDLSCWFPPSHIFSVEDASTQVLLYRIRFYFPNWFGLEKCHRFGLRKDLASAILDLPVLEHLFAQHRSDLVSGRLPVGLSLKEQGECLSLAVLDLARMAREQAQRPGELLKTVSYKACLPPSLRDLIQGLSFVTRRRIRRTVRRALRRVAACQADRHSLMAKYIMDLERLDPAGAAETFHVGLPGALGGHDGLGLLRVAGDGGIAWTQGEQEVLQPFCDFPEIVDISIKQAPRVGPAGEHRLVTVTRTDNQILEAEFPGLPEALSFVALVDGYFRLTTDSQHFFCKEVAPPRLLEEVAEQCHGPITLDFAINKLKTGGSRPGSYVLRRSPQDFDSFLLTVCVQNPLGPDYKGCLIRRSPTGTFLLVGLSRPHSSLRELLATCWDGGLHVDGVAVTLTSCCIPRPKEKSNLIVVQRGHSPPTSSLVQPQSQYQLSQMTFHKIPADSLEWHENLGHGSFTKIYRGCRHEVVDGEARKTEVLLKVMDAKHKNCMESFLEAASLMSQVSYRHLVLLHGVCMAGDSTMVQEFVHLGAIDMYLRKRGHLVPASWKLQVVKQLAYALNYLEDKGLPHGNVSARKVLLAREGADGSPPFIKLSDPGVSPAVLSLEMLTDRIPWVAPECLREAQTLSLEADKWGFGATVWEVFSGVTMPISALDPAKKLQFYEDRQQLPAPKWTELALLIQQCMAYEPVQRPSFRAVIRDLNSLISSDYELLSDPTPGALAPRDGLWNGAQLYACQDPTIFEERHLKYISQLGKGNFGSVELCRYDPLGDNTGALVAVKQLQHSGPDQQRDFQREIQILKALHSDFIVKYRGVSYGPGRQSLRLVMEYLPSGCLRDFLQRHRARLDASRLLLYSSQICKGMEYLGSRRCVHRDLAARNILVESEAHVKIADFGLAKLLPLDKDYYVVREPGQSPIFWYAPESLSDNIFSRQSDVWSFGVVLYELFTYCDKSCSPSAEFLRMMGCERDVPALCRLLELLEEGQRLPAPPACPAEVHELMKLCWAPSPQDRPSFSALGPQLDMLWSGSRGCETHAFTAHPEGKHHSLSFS

Row | Structure (SMILES) | JAK 3 (pKi)
15 | C=CC(=O)N1CC(CCn2c(=O)ccc3cnc(Nc4cccc(N5CCN(C(=O)OC)CC5)c4)nc32)C1 [Example 123] | B (B represents pKi value between 9 and 10 (Ki between 1 nM and 0.1 nM))
16 | C=CC(=O)N1CC(CCn2c(=O)ccc3cnc(Nc4cccc(N5CCN(C(=O)N(C)C)CC5)c4)nc32)C1 [Example 124] | A (A represents a pKi value≥10 (Ki≤0.1 nM))
17 | C=CC(=O)N1CC(CCn2c(=O)ccc3cnc(Nc4cccc(CN5CCN(S(=O)(=O)CC#N)CC5)c4)nc32)C1 [Example 125] | A (A represents a pKi value≥10 (Ki≤0.1 nM))
18 | C=CC(=O)N1CC(CCn2c(=O)ccc3cnc(Nc4cccc(N5CCN(S(C)(=O)=O)CC5)c4)nc32)C1 [Example 127] | A (A represents a pKi value≥10 (Ki≤0.1 nM))
19 | C=CC(=O)N1CCN(CCn2c(=O)ccc3cnc(Nc4ccc(N5CCN(S(C)(=O)=O)CC5)cc4)nc32)CC1 [Example 130] | B (B represents pKi value between 9 and 10 (Ki between 1 nM and 0.1 nM))
20 | C=CC(=O)N1CCN(CCn2c(=O)ccc3cnc(Nc4cnn(C)c4)nc32)[C@@H](CO)C1 [Example 131] | B (B represents pKi value between 9 and 10 (Ki between 1 nM and 0.1 nM))
21 | C=CC(=O)N1CC(CCn2c(=O)ccc3cnc(Nc4ccc(N5CCN(C)CC5)c(OC)c4)nc32)C1 [Example 135] | B (B represents pKi value between 9 and 10 (Ki between 1 nM and 0.1 nM))

Same assay, conditions: selectivity JAK3 over JAK1, difference of pKi

Row | Structure (SMILES) | JAK3 (pKi)-JAK1 (pKi)
22 | C=CC(=O)N1CC(CCn2c(=O)ccc3cnc(Nc4cccc(N5CCN(C(=O)OC)CC5)c4)nc32)C1 [Example 123] | A (A represents a value of 3 or above)
23 | C=CC(=O)N1CC(CCn2c(=O)ccc3cnc(Nc4cccc(N5CCN(C(=O)N(C)C)CC5)c4)nc32)C1 [Example 124] | A (A represents a value of 3 or above)
24 | C=CC(=O)N1CC(CCn2c(=O)ccc3cnc(Nc4cccc(CN5CCN(S(=O)(=O)CC#N)CC5)c4)nc32)C1 [Example 125] | A (A represents a value of 3 or above)
25 | C=CC(=O)N1CC(CCn2c(=O)ccc3cnc(Nc4cccc(N5CCN(S(C)(=O)=O)CC5)c4)nc32)C1 [Example 127] | A (A represents a value of 3 or above)
26 | C=CC(=O)N1CCN(CCn2c(=O)ccc3cnc(Nc4ccc(N5CCN(S(C)(=O)=O)CC5)cc4)nc32)CC1 [Example 130] | A (A represents a value of 3 or above)
27 | C=CC(=O)N1CCN(CCn2c(=O)ccc3cnc(Nc4cnn(C)c4)nc32)[C@@H](CO)C1 [Example 131] | A (A represents a value of 3 or above)
28 | C=CC(=O)N1CC(CCn2c(=O)ccc3cnc(Nc4ccc(N5CCN(C)CC5)c(OC)c4)nc32)C1 [Example 135] | A (A represents a value of 3 or above)

Molecular target: Tyk2 (Homo sapiens (Human), UniProt P29597)
Experiment: Biochemical Tyk2 kinase assay (LanthaScreen)
Details: not given
Summary of the method: as §1

Tyk2, sequence (P29597 whole entry): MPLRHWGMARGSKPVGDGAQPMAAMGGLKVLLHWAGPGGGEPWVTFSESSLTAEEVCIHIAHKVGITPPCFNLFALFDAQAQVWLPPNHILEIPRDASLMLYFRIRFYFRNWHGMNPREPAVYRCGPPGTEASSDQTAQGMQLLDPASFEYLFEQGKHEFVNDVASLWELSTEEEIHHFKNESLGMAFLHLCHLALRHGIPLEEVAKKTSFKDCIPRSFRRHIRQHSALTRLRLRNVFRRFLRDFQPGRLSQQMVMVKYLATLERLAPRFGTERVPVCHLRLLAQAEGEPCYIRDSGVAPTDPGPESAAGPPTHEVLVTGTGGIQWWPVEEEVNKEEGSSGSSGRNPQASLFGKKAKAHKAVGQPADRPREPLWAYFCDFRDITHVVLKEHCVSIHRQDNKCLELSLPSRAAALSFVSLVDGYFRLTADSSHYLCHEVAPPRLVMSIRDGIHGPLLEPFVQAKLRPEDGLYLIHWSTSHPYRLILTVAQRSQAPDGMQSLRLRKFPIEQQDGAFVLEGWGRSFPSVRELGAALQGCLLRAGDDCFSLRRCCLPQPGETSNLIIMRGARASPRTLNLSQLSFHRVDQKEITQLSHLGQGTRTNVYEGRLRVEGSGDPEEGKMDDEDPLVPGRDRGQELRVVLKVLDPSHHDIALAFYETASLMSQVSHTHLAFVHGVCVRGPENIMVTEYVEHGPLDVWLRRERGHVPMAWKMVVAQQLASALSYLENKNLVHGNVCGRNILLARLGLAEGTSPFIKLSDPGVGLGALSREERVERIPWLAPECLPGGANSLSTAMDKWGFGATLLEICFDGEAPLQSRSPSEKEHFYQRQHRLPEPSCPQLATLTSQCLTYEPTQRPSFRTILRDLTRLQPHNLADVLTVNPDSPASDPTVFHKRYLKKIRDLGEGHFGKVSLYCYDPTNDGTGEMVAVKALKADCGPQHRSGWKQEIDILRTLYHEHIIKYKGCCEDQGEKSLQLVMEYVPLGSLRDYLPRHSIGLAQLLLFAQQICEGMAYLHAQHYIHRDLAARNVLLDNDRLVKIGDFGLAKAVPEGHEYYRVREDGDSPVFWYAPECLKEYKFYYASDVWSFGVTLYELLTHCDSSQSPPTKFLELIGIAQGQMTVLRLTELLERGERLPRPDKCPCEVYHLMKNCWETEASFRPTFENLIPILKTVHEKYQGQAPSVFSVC

Row | Structure (SMILES) | Tyk 2 (pKi)
29 | C=CC(=O)N1CC(CCn2c(=O)ccc3cnc(Nc4cccc(N5CCN(C(=O)OC)CC5)c4)nc32)C1 [Example 123] | E (E represents a pKi value of 7 or below (Ki of 100 nM or above))
30 | C=CC(=O)N1CC(CCn2c(=O)ccc3cnc(Nc4cccc(N5CCN(C(=O)N(C)C)CC5)c4)nc32)C1 [Example 124] | E (E represents a pKi value of 7 or below (Ki of 100 nM or above))
31 | C=CC(=O)N1CC(CCn2c(=O)ccc3cnc(Nc4cccc(CN5CCN(S(=O)(=O)CC#N)CC5)c4)nc32)C1 [Example 125] | E (E represents a pKi value of 7 or below (Ki of 100 nM or above))
32 | C=CC(=O)N1CC(CCn2c(=O)ccc3cnc(Nc4cccc(N5CCN(S(C)(=O)=O)CC5)c4)nc32)C1 [Example 127] | E (E represents a pKi value of 7 or below (Ki of 100 nM or above))
33 | C=CC(=O)N1CCN(CCn2c(=O)ccc3cnc(Nc4ccc(N5CCN(S(C)(=O)=O)CC5)cc4)nc32)CC1 [Example 130] | E (E represents a pKi value of 7 or below (Ki of 100 nM or above))
34 | C=CC(=O)N1CCN(CCn2c(=O)ccc3cnc(Nc4cnn(C)c4)nc32)[C@@H](CO)C1 [Example 131] | E (E represents a pKi value of 7 or below (Ki of 100 nM or above))
35 | C=CC(=O)N1CC(CCn2c(=O)ccc3cnc(Nc4ccc(N5CCN(C)CC5)c(OC)c4)nc32)C1 [Example 135] | E (E represents a pKi value of 7 or below (Ki of 100 nM or above))

Tested on: IL-2 stimulated STAT5 phosphorylation in Tall-1 human T cell line (JAK3)
Experiment: Cellular JAK3 potency assay: inhibition of IL-2 stimulated pSTAT5 in Tall-1 T cells
Format: cell-based
Details: IL-2 stimulated pSTAT5, Tall-1 T cells
Summary of the method: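 AlphaLISA SureFire Ultra measures STAT5 Tyr694/699 phosphorylation in lysed Tall-1 human T cells. Cells were exposed to compound for 1 h at 37 °C before a 30 min IL-2 challenge (300 ng/ml final). Values are pIC50 means with standard deviation from signal-versus-concentration curves.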

Row | Structure (SMILES) | Tall-1 (pIC50)
36 | C=CC(=O)N1CC(CCn2c(=O)ccc3cnc(Nc4cccc(N5CCN(C(=O)OC)CC5)c4)nc32)C1 [Example 123] | B (B represents a pC50 value between 6.7 (included) and 7.5 (IC50 between 200 nM and 32 nM))
37 | C=CC(=O)N1CC(CCn2c(=O)ccc3cnc(Nc4cccc(N5CCN(C(=O)N(C)C)CC5)c4)nc32)C1 [Example 124] | B (B represents a pC50 value between 6.7 (included) and 7.5 (IC50 between 200 nM and 32 nM))
38 | C=CC(=O)N1CC(CCn2c(=O)ccc3cnc(Nc4cccc(CN5CCN(S(=O)(=O)CC#N)CC5)c4)nc32)C1 [Example 125] | B (B represents a pC50 value between 6.7 (included) and 7.5 (IC50 between 200 nM and 32 nM))
39 | C=CC(=O)N1CC(CCn2c(=O)ccc3cnc(Nc4cccc(N5CCN(S(C)(=O)=O)CC5)c4)nc32)C1 [Example 127] | B (B represents a pC50 value between 6.7 (included) and 7.5 (IC50 between 200 nM and 32 nM))
40 | C=CC(=O)N1CCN(CCn2c(=O)ccc3cnc(Nc4ccc(N5CCN(S(C)(=O)=O)CC5)cc4)nc32)CC1 [Example 130] | B (B represents a pC50 value between 6.7 (included) and 7.5 (IC50 between 200 nM and 32 nM))
41 | C=CC(=O)N1CCN(CCn2c(=O)ccc3cnc(Nc4cnn(C)c4)nc32)[C@@H](CO)C1 [Example 131] | C (C represents a pIC50 value between 6 and 6.7 (IC50 between 1 μM and 200 nM))
42 | C=CC(=O)N1CC(CCn2c(=O)ccc3cnc(Nc4ccc(N5CCN(C)CC5)c(OC)c4)nc32)C1 [Example 135] | B (B represents a pC50 value between 6.7 (included) and 7.5 (IC50 between 200 nM and 32 nM))

Tested on: Caco-2 cell monolayers
Experiment: Caco-2 permeation assay
Format: in vitro ADME
Details: 5 μM, A-B direction, with Verapamil (25 μM)
Summary of the method: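 Passive A-to-B permeability with P-gp inhibited by verapamil (25 μM); compound at 5 μM, n=2. Both compartments sampled at t0 and t120 and quantified by LC-MS/MS, giving apparent permeability in cm/sec from flux, area and concentration.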

Row | Structure (SMILES) | Caco Kp
43 | C=CC(=O)N1CC(CCn2c(=O)ccc3cnc(Nc4cccc(N5CCN(C(=O)OC)CC5)c4)nc32)C1 [Example 123] | C (C represents a value between 10×10^−6 and 30×10^−6 cm/sec)
44 | C=CC(=O)N1CC(CCn2c(=O)ccc3cnc(Nc4cccc(N5CCN(C(=O)N(C)C)CC5)c4)nc32)C1 [Example 124] | B (B represents a value between 5×10^−6 and 10×10^−6 cm/sec)
45 | C=CC(=O)N1CC(CCn2c(=O)ccc3cnc(Nc4cccc(CN5CCN(S(=O)(=O)CC#N)CC5)c4)nc32)C1 [Example 125] | B (B represents a value between 5×10^−6 and 10×10^−6 cm/sec)
46 | C=CC(=O)N1CC(CCn2c(=O)ccc3cnc(Nc4cccc(N5CCN(S(C)(=O)=O)CC5)c4)nc32)C1 [Example 127] | A (A represents a value below 5×10^−6 cm/sec)
47 | C=CC(=O)N1CCN(CCn2c(=O)ccc3cnc(Nc4ccc(N5CCN(S(C)(=O)=O)CC5)cc4)nc32)CC1 [Example 130] | A (A represents a value below 5×10^−6 cm/sec)
48 | C=CC(=O)N1CCN(CCn2c(=O)ccc3cnc(Nc4cnn(C)c4)nc32)[C@@H](CO)C1 [Example 131] | A (A represents a value below 5×10^−6 cm/sec)
49 | C=CC(=O)N1CC(CCn2c(=O)ccc3cnc(Nc4ccc(N5CCN(C)CC5)c(OC)c4)nc32)C1 [Example 135] | A (A represents a value below 5×10^−6 cm/sec)
